For one molecule, IC50 results are on record in article PMC8767972 (Slas Discovery, 2022).

Assay [1] concerns the target NL63 main protease (Human coronavirus NL63, UniProt P0C6X5). It counts as biochemical, NL63 CoV. Conditions: read-out: NL63 IC50.
In assay [2] the target is HKU1 main protease (Human coronavirus HKU1, UniProt P0C6X2). It counts as biochemical, HKU1 CoV. Conditions: read-out: HKU1 IC50.
Chain of HKU1 main protease (P0C6X2 3335-3637 limits assumed): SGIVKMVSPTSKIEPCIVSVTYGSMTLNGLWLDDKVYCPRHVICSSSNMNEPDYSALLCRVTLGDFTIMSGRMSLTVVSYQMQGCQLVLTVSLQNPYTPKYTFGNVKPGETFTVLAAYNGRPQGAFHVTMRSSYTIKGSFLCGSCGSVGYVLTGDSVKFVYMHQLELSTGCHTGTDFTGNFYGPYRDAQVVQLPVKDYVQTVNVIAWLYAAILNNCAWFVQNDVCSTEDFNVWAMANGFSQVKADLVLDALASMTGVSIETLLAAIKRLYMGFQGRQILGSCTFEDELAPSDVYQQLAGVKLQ

Chain of NL63 main protease (P0C6X5 2940-3242 limits assumed): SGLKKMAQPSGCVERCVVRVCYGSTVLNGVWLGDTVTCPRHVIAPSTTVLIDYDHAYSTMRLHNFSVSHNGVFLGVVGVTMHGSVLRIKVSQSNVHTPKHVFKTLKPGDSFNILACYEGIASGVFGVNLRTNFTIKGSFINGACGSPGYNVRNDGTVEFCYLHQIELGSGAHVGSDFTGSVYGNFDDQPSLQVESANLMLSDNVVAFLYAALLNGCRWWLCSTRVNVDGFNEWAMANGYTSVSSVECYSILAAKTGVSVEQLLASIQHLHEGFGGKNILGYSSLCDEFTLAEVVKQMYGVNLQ

For the molecule `CC(C)C[C@H](NC(=O)OCc1ccccc1)C(=O)N[C@@H](CC1CCNC1=O)C(O)S(=O)(=O)O` (some centres unmarked) [GC376], the IC50 in assay [1] worked out at 0.052 µM; in assay [2], 0.012 µM.

As usually defined, the IC50 is the concentration at which inhibition is half-maximal.
